Experimental data from patent publication US12404265B2, “Substituted pyridine derivatives as SARM1 inhibitors” (Nura Bio, Inc., priority 2020, dated 2025).

molecular target: T1, human SARM1(50-724) (Homo sapiens, UniProt Q6SZW1); assay: SARM1 NADase biochemical assay (HPLC of NAD and NAM); conditions: 40 nM human SARM1(50-724), 0.3 mM NMN, 20 μM NAD, 60 minutes room temperature; dose-response from 100 μM, 1:3 dilution
T1 construct: 40 nM human SARM1(50-724)
T1 sequence (Q6SZW1 50-724): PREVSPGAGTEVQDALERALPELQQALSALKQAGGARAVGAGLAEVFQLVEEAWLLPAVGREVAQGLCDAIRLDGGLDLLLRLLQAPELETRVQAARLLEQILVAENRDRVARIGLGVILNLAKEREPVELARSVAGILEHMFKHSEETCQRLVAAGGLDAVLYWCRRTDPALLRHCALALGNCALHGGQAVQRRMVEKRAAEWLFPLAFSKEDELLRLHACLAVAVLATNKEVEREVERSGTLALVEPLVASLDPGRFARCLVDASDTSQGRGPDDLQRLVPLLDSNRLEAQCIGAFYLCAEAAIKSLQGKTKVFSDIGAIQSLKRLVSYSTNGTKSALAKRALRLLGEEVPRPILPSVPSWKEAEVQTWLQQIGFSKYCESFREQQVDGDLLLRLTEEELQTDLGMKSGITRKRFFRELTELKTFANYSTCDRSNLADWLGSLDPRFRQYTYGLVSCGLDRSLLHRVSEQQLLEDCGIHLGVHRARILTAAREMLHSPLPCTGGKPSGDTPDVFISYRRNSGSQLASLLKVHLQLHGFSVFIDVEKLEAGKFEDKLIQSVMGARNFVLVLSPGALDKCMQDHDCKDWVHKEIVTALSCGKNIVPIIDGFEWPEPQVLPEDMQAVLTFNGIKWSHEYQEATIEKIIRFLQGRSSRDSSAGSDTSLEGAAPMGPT
Method in brief: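 Human SARM1(50-724) at 40 nM with 0.3 mM NMN, 20 μM NAD, 1 mM TCEP in 25 mM HEPES pH 7.4, 10 mM KCl, 10 mM MgCl2, 1% DMSO; 60 min at room temperature, formic acid quench. NAD and NAM quantified by reverse-phase HPLC peak area; single point 50 μM or 1:3 series from 100 μM.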

SMILES | IC50 [µM]
Cc1cnccc1-c1n[nH]c(NC(=O)CCc2ccc(Cl)cc2)c1C [Example 110] | < 1
Cc1c(-c2ccncc2)n[nH]c1NC(=O)CCc1ccccc1 [Example 22, N-(4-Methyl-3-(pyridin-4-yl)-1H-pyrazol-5-yl)-3-phenylpropanamide] | 1 to 10
O=C(CCc1cc(F)c(Cl)c(F)c1)Nc1cnn(-c2ccncc2)c1Cl [Example 91, N-(5-Chloro-1-(pyridin-4-yl)-1H-pyrazol-4-yl)-3-(4-chloro-3,5-difluorophenyl)propanamide] | < 1
Cc1c(-c2ccncc2)n[nH]c1N(C(=O)CCc1cc(F)c(Cl)c(F)c1)C(=O)CCc1cc(F)c(Cl)c(F)c1 [Example 9, 3-(4-Chloro-3,5-difluorophenyl)-N-(3-(4-chloro-3,5-difluorophenyl)propanoyl)-N-(4-methyl-3-(pyridin-4-yl)-1H-pyrazol-5-yl)propanamide] | < 1
O=C(CCc1cccc(Cl)c1)Nc1cnn(-c2ccncc2)c1Cl [Example 126, N-[5-Chloro-1-(pyridin-4-yl)-1H-pyrazol-4-yl]-3-(3-chlorophenyl)propanamide] | 1 to 10
Cc1cnccc1-n1cc(NC(=O)CCc2ccc(Cl)cc2)cn1 [Example 109, 3-(4-Chlorophenyl)-N-(1-(3-methylpyridin-4-yl)-1H-pyrazol-4-yl)propanamide] | 1 to 10
N#Cc1c(F)cc(CC2CCN(c3cc(-c4ccncc4)n[nH]3)C2=O)cc1F (centres unmarked) [Example 146, 2,6-Difluoro-4-((2-oxo-1-(3-(pyridin-4-yl)-1H-pyrazol-5-yl)pyrrolidin-3-yl)methyl)benzonitrile] | < 1
Cc1c(-c2ccncc2)n[nH]c1NC(=O)CCc1ccc(Cl)cc1F [Example 41, 3-(4-Chloro-2-fluorophenyl)-N-(4-methyl-3-(pyridin-4-yl)-1H-pyrazol-5-yl)propanamide] | < 1
